{"source": "patent US8580512B2", "about": "“Yeast-based methods of identifying nucleic acids and compounds for treating neurodegenerative diseases” (University of Alabama, priority 2008, dated 2013)", "key": {"S. pombe cells [1]": {"test_system": "S. pombe cells", "experiment": "Reversal of rotenone-induced proliferation inhibition", "type": "cell-based, Schizosaccharomyces pombe", "method": "Phosphatidylethanolamine (PE) deficiency results in a rotenone-sensitive phenotype that can be suppressed by ethanolamine. Log phase cultures were suspended at 10^7 cells/ml, serially diluted (1:10), and spotted (5 μl per spot) onto YES (Control) or YES containing 16 μM rotenone (+Rotenone).\nOxidative stress has been detected in the brains of deceased Parkinson's disease patients, and in rats exposed to rotenone as a model for Parkinson's disease."}, "S. pombe cells [2]": {"test_system": "S. pombe cells", "experiment": "Rotenone sensitivity assay (serial dilution spot growth on agar media)", "type": "cell-based, Schizosaccharomyces pombe", "conditions": "for sensitivity of growth to rotenone: 16 μM rotenone; for sensitivity of growth to rotenone relative to wild type: rotenone 6.4 μg/ml; for inhibition of S. pombe growth: wild type", "method": "Yeast strains, media, and genetic methods. The following S. pombe strains were used in this study: SP870 (h90 ade6-210 leu1-32 ura4-D18), SPSPC1 U90 (h90 ade6-210 leu1-32 ura4-D18 spc1::ura4), SPM1L (h90 leu1-32 ura4-D18 spm1::LEU2). S. pombe cultures were grown in either YES medium (0.5% yeast extract; 3% dextrose; and adenine, histidine, leucine, lysine and uracil, each at 250 mg/L) or Edinburgh minimal medium (EMM) containing required auxotrophic supplements (Alfa et al., (1993) Experiments with fission yeast: A laboratory course manual, Cold Spring Harbor Laboratory Press, Cold Spring Harbor, N.Y., incorporated herein by reference in its entirety). Agar media contained 2% Bacto agar (Difco).\nRotenone sensitivity assay. Rotenone stock solutions (10 mM in DMSO) were prepared just prior to carrying out each experiment and protected from light. Rotenone containing YES and EMM agar media were prepared by mixing rotenone stock solution with growth medium as required for the desired rotenone concentration (up to 6.4 μg/ml). For agar media, rotenone stock solution was added after autoclaving and cooling of the media to approximately 45° C. DMSO was added to control media at concentrations equivalent to that in media supplemented with rotenone. Plates were incubated at room temperature for 3-12 hr prior to use. S. pombe strains were cultured overnight in YES liquid medium at 30° C. to mid-log phase, concentrated to 5×10^6 cells/ml, and serially diluted (1:5). Three μl of each dilution was spotted onto rotenone containing plates and control plates and the plates were incubated at 30° C. for 2-4 days, as indicated in relevant figure legends.\nEffects of rotenone on S. pombe cell growth in nutrient-enriched and nutrient-limited conditions. To investigate the effects of rotenone on S. pombe cell growth, we prepared complex rich (YES) and synthetic defined minimal (EMM) agar media containing concentrations of rotenone ranging from 0.2 to 6.4 μg/ml. […] Since rotenone has a relatively short half-life in aqueous solutions, growth media containing the toxin were prepared freshly prior to each experiment. Mid-log phase cultures of wild type S. pombe cells were serially diluted and tested for growth on YES and EMM plates containing rotenone and on control media lacking the toxin.\nTo determine whether spc1Δ and/or pmk1Δ mutants are hypersensitive to rotenone, log phase cultures of the two strains and wild type S. pombe cells were serially diluted and tested for growth on YES medium containing rotenone and on control medium lacking the toxin. […] The reduced sensitivity of spc1Δ cells to rotenone was most evident after incubation of the cultures for two days (FIG. 8A), with the difference after 3 days of growth being apparent from examination of colony sizes at the end of the cell dilution series on the respective plates (FIG. 8B)."}, "S. pombe cells [3]": {"test_system": "S. pombe cells", "experiment": "MitoTracker Green FM staining of mitochondrial localization", "type": "cell-based, Schizosaccharomyces pombe", "method": "(§1) MitoTracker Green FM and dihydroethidium (DHE) staining of S. pombe cells. Mitochondrial localization was detected by staining S. pombe cells with MitoTracker Green FM (MTGreen) based on the protocol recommended by the manufacturer (Invitrogen). Briefly, S. pombe cells were cultured overnight in YES liquid medium at 30° C. to mid-log phase. Where indicated, rotenone stock solution was added to portions of each culture to a final concentration of 6.4 μg/ml. Equivalent volumes of DMSO were added to control cultures. Stock solutions of MTGreen (5 μM in DMSO) were prepared just prior to use. Staining was carried out by adding 10 μl of MTGreen stock solution to 1 ml of cell culture and incubating at 30° C. with shaking for 20 min. Stained cells were washed once with YES and resuspended in approximately 10 μl of YES prior to preparation of samples for microscopy. Stained cells were concentrated by centrifugation to a volume of approximately 10 μl. DHE staining was carried out as described by Huard et al., (2008) Cell Res. 18: 961-973, incorporated herein by reference in its entirety. Stained cells were visualized by epifluorescence microscopy using a Nikon 90i automated epifluorescence microscope system operated using Nikon NIS-Elements software. Images were captured using a CoolSNAP HQ2 monochrome CCD camera (Photometrics). RAW images were level-adjusted using the Adobe PhotoShop CS3 software application.\nRotenone induces disruption of mitochondrial localization in S. pombe cells. Similar to some mammalian cells, such as fibroblasts and nerve cells (Barsoum et al., (2006) EMBO J. 25: 3900-3911; Amchenkova et al., (1988) J. Cell. Biol. 107: 481-495), mitochondria in S. pombe are organized into tubular structures (Chiron et al., (2007) Methods Mol. Biol. 372: 91-105), as shown in FIG. 5A. […] Wild type S. pombe cells were cultured to mid-log phase in YES liquid medium were treated with rotenone (6.4 μg/ml) for 4 hr, stained with the fluorescent mitochondrial dye MitoTracker Green FM (MTGreen), and visualized by fluorescence microscopy. […]"}, "S. pombe cells [4]": {"test_system": "S. pombe cells", "experiment": "Dihydroethidium (DHE) staining for ROS", "type": "cell-based, Schizosaccharomyces pombe", "conditions": "rotenone 6.4 μg/ml; for ROS levels (DHE): wild type", "method": "as §1\nRotenone induces generation of ROS in S. pombe cells. Since rotenone induces generation of ROS in mammalian cell cultures and oxidative stress damage in the brains of rats chronically treated with the toxin (Li et al., (2003) J. Biol. Chem. 278: 8516-8525; Greenamyre et al., (2003) Parkinsonism Relat. Disord. 9 (Suppl 2): S59-64), it was determined whether rotenone also induces generation of ROS in S. pombe cells. To do this, wild type S. pombe cells were treated with rotenone and periodically analyzed the treated cells by staining with dihydroethidium (DHE), which is oxidized to ethidium in the presence of ROS (Bindokas et al., (1996) J. Neurosci. 16: 1324-1336).\nPmk1, but not Spc1, is required for normal clearance of rotenone-induced ROS in S. pombe cells. To investigate further the effects of rotenone on spc1Δ and pmk1Δ cells, we treated the two strains and wild type S. pombe cells were treated with rotenone for 12 hrs and stained cells from treated and control cultures with DHE for detection of ROS by fluorescence microscopy."}, "S. pombe cells [5]": {"test_system": "S. pombe cells", "experiment": "DIC microscopy of cell morphology", "type": "cell-based, Schizosaccharomyces pombe", "conditions": "wild type, rotenone 6.4 μg/ml, 4 to 24 hrs", "description": "To determine whether rotenone induces abnormalities in S. pombe cell morphology, rotenone-treated and untreated S. pombe cells were compared by DIC microscopy."}, "S. pombe cells [6]": {"test_system": "S. pombe cells", "conditions": "0.3 μg/ml rotenone, Heslot et al. 1970; cited from earlier work"}}, "data": [{"smiles": "O=C1O[C@H]([C@@H](O)CO)C(O)=C1O", "note": "[ascorbic acid]", "values": [{"measurement": "reversal of rotenone-induced proliferation inhibition", "setting": "S. pombe cells [1]; pka1Δ S. pombe cells", "result": "reversed"}, {"measurement": "reversal of rotenone-induced proliferation inhibition", "setting": "S. pombe cells [1]; wild-type S. pombe cells, nutrient stressed conditions", "result": "reversed"}]}, {"smiles": "NCCO", "note": "[ethanolamine]", "values": [{"measurement": "suppression of rotenone-sensitive phenotype", "setting": "S. pombe cells [1]; psd1-3Δ (phosphatidylethanolamine deficient) strain, YES with 16 μM rotenone, 1 mM ethanolamine", "result": "suppressed"}]}, {"smiles": "C=C(C)[C@H]1Cc2c(ccc3c2O[C@@H]2COc4cc(OC)c(OC)cc4[C@@H]2C3=O)O1", "note": "[rotenone]", "values": [{"measurement": "sensitivity of growth to rotenone", "setting": "S. pombe cells [2]; aks1Δ mutant, complex YES medium", "result": "strongly hypersensitive"}, {"measurement": "sensitivity of growth to rotenone", "setting": "S. pombe cells [2]; cgs1Δ mutant, complex YES medium", "result": "does not significantly increase the sensitivity"}, {"measurement": "sensitivity of growth to rotenone", "setting": "S. pombe cells [2]; cgs1Δaks1Δ double mutant, complex YES medium", "result": "allowing the yeast to proliferate in the presence of rotenone"}, {"measurement": "sensitivity of growth to rotenone", "setting": "S. pombe cells [2]; pka1Δ mutant, complex YES medium", "result": "strongly hypersensitive"}, {"measurement": "sensitivity of growth to rotenone relative to wild type", "setting": "S. pombe cells [2]; pmk1Δ mutant, YES medium, 3 days", "result": "profoundly more sensitive"}, {"measurement": "sensitivity of growth to rotenone", "setting": "S. pombe cells [2]; psd1Δ psd2Δ psd3Δ triple deletion, complex medium", "result": "increased sensitivity"}, {"measurement": "sensitivity of growth to rotenone relative to wild type", "setting": "S. pombe cells [2]; spc1Δ mutant, YES medium, 2-3 days", "result": "slightly less sensitive"}, {"measurement": "sensitivity of growth to rotenone", "setting": "S. pombe cells [2]; spc1Δ mutant, complex YES medium", "result": "not hypersensitive"}, {"measurement": "inhibition of S. pombe growth", "setting": "S. pombe cells [2]; EMM minimal medium, 1.6 μg/ml rotenone, 4 days at 30° C.", "result": "slightly inhibited"}, {"measurement": "inhibition of S. pombe growth", "setting": "S. pombe cells [2]; EMM minimal medium, 6.4 μg/ml rotenone, 4 days at 30° C.", "result": "strongly inhibited"}, {"measurement": "inhibition of S. pombe growth", "setting": "S. pombe cells [2]; YES medium, 6.4 μg/ml rotenone, 3 days at 30° C.", "result": "modest inhibition"}, {"measurement": "inhibition of S. pombe growth", "setting": "S. pombe cells [2]; YES medium, rotenone concentrations lower than 6.4 μg/ml (from 0.2 μg/ml)", "result": "not on YES containing lower concentrations"}, {"measurement": "cells with fragmentation of mitochondrial localization", "setting": "S. pombe cells [3]; pmk1Δ cells, rotenone 6.4 μg/ml, 4 hr", "result": "approximately 70 % of cells"}, {"measurement": "effect on mitochondrial localization", "setting": "S. pombe cells [3]; spc1Δ cells, rotenone 6.4 μg/ml, 4 hr", "result": "marginal effect"}, {"measurement": "persistence of fragmented pattern of mitochondrial localization after initial exposure", "setting": "S. pombe cells [3]; wild type, continued culturing in rotenone containing medium, data not shown", "result": "at least 24 hrs"}, {"measurement": "rotenone-induced ROS levels (DHE) relative to wild type", "setting": "S. pombe cells [4]; pmk1Δ cells, 12 hrs", "result": "dramatically higher"}, {"measurement": "rotenone-induced ROS levels (DHE)", "setting": "S. pombe cells [4]; spc1Δ cells, 12 hrs", "result": "only a very slight increase"}, {"measurement": "ROS levels (DHE)", "setting": "S. pombe cells [4]; 6 hrs", "result": "higher levels of ROS than control cells"}, {"measurement": "ROS levels (DHE)", "setting": "S. pombe cells [4]; 12 hr", "result": "Higher levels of ROS"}, {"measurement": "defects in S. pombe cell morphology", "setting": "S. pombe cells [5]", "result": "does not induce obvious defects"}, {"measurement": "effect on S. pombe cell growth", "setting": "S. pombe cells [6]", "result": "negligible effect"}]}]}
